Measured values: patent US7462646B2, “Osteoclastogenesis inhibitors and uses thereof” (Research Development Foundation, priority 2003, dated 2008)

Assays:
phospho-IκBα = assay: RANKL-induced IκBα phosphorylation by Western blotting in RAW 264.7 cells; format: cell-based, mouse; conditions: for RANKL-induced phosphorylation of IκBα: RANKL 10 nM
Method: (§1) RAW264.7 cells (1×10^6 cells) were incubated with 1′-Acetoxychavicol (50 μM) and RANKL (10 nM) for different times. The samples were then analyzed for IκBα by western blot. […] RAW264.7 cells (1×10^6 cells) were incubated with different combinations of 1′-Acetoxychavicol (50 μM), RANKL (10 nM), acetyl-leucyl-leucyl-norleucinal (ALLN, 50 μg/ml) for 25 min. The samples were analyzed for phosphorylated IκBα by western blot.
(§2) Thirty to fifty micrograms of cytoplasmic protein extracts were resolved on 10% SDS-PAGE gel. After electrophoresis, the proteins were electrotransferred to a nitrocellulose membrane, blocked with 5% nonfat milk, and probed with antibodies against either IκBα, phospho-IκBα, IKKα, IKKβ, or β-actin (1:3000) for 1 h. Thereafter, the blot was washed, exposed to HRP-conjugated secondary antibodies for 1 h, and finally detected by chemiluminescence (ECL, Amersham Pharmacia Biotech, Arlington Heights, Ill.).

[1] = test system: RAW264.7 cells incubated with MCF-7 cells; assay: MCF-7 breast adenocarcinoma cells-induced osteoclastogenesis (TRAP assay); format: cell-based, mouse; conditions: five days
Method: (§3) RAW264.7 cells (1×10^4 cells) were incubated either with MDA-MB-468 cells (1×10^3 cells) or with MCF-7 cells (1×10^3 cells) in the presence of varying concentrations of 1′-Acetoxychavicol for five days and then analyzed for osteoclastogenesis by TRAP assay.
(§4) RAW264.7 cells (1×10^4 cells) were incubated with MDA-MB-468 cells (1×10^3 cells) or with MCF-7 cells (1×10^3 cells) in the presence of varying concentrations of guggulsterone for five days and then analyzed for osteoclastogenesis by TRAP assay.
(§5) The ability of tumor cells to induce osteoclastogenesis was also investigated in this study. Cells from head and neck squamous cell carcinoma and breast adenocarcinoma were used for this purpose. Briefly, RAW264.7 cells were incubated with different numbers of cells of head and neck squamous cell carcinoma (HN5, Fadu) or breast adenocarcinoma (MDA-MB-468, MCF-7) and then analyzed for osteoclastogenesis by TRAP assay.

NF-κB = assay: RANKL-induced NF-κB activation by EMSA in RAW 264.7 cells; format: cell-based, mouse
Method: (§6) RAW264.7 cells (1×10^6 cells) were incubated with variable concentrations of guggulsterone for 4 h followed by treatment of the cells with RANKL (10 nM) for 25 min. The samples were then analyzed for NF-κB by EMSA. […] RAW264.7 cells (5×10^6 cells) were incubated with guggulsterone (50 μM) for 4 h followed by treatment of the cells with RANKL (10 nM) for different times. The samples were then analyzed for IKK by immune complex kinase assay.
RAW264.7 cells (1×10^6 cells) were incubated with 1′-Acetoxychavicol (50 μM) and RANKL (10 nm) for different times. The samples were then analyzed for NF-κB by EMSA. […] RAW264.7 cells (1×10^6 cells) were incubated with variable concentrations of 1′-Acetoxychavicol and RANKL (10 nM) for 25 min. The samples were then analyzed for NF-κB by EMSA.
Nuclear extracts were prepared as described earlier (Bharti et al., 2003). Briefly, 2×10^6 RAW264.7 cells were washed with cold PBS, scraped, and suspended in 0.4 ml of hypotonic lysis buffer containing protease inhibitors for 30 min. The cells were then lysed with 12.5 μl of 10% Nonidet P-40. The homogenate was centrifuged, and supernatant containing the cytoplasmic extracts was stored frozen at −80° C. The nuclear pellet was re-suspended in 25 μl ice-cold nuclear extraction buffer. After 30 min of intermittent mixing, the extract was centrifuged, and supernatants containing nuclear extracts were secured. The protein content was measured by the Bradford method. If the extracts were not used immediately, they were stored at −80° C.
NF-κB activation was analyzed by electrophoretic mobility gel shift assay as described (Chaturvedi et al., 1994). […] The radioactive bands from the dried gels were visualized and quantitated by the Phosphorlmager (Molecular Dynamics, Sunnyvale, Calif.) using ImageQuant software.

RAW 264.7 cells = assay: Osteoclast differentiation assay (RANKL-induced, TRAP staining); format: cell-based, mouse
Method: Cells were cultured for 5 days after RANKL treatment and stained for TRAP expression. […] Values indicate mean of total osteoclasts in triplicate cultures (error bar indicates s.d.).
RAW264.7 cells (1×10^4 cells) were incubated with guggulsterone (5 μM) and RANKL (5 nM) for different days. The samples were then analyzed for osteoclastogenesis by TRAP assay. […]
RAW264.7 cells were cultured in 24-well dishes at a density of 1×10^4 cells per well and were allowed to adhere overnight. Medium was then replaced and the cells were treated with 100 ng/ml (˜5 nM) RANKL. At day 5, cultures were stained for TRAP expression as described (Shevde et al., 2000) using an acid phosphatase kit, and the total number of TRAP-positive multinucleated osteoclasts (>3 nuclei) per well were counted.

IκBα = assay: RANKL-induced IκBα degradation by Western blotting in RAW 264.7 cells; format: cell-based, mouse
Method: as §1, §2

[2] = test system: RAW264.7 cells incubated with MDA-MB-468 cells; assay: MDA-MB-468 breast adenocarcinoma cells-induced osteoclastogenesis (TRAP assay); format: cell-based, mouse; conditions: five days
Method: as §3, §4, §5

IKKα = IKKα protein expression by Western blotting; format: cell-based, mouse; conditions: curcumin 50 μM; FIG. 2C middle/lower panel
Method: as §2
(§7) The IκB kinase assay was performed by a modified method as described earlier (Manna et al., 2000). Briefly, 200 μg cytoplasmic extracts were immunoprecipitated with 1 μg of anti-IKKα and anti-IKKβ antibodies each, and the immune complexes so formed were precipitated with 0.01 ml of protein A/G-Sepharose beads for 2 hours. The beads were washed first with lysis buffer and then with the kinase assay buffer (50 mM HEPES pH 7.4, 20 mM MgCl2, and 2 mM DTT). The immune complex was then assayed for kinase activity usinig kinase assay buffer containing 20 μCi [γ-^32P] ATP, 10 μM unlabeled ATP, and 2 μg/sample glutathione S-transferase-IκBα (amino acids 1-54). After incubation at 30° C. for 30 min, the mixture was boiled with 6×SDS sample buffer to stop the reaction. […] The radioactive bands of the dried gel were visualized and quantitated by Phosphorlmager. […]

IKKβ = IKKβ protein expression by Western blotting; format: cell-based, mouse; conditions: curcumin 50 μM; FIG. 2C middle/lower panel
Method: as §2, §7

IκB kinase (IKK) = target: T1, IκB kinase (IKK) (Mus musculus, UniProt O88351+Q60680); assay: IκB kinase (immune complex kinase) assay on extracts of treated RAW 264.7 cells; format: cell-based
T1 construct: 200 μg cytoplasmic extracts were immunoprecipitated with 1 μg of anti-IKKα and anti-IKKβ antibodies each; endogenous in cells; host or cells: RAW 264.7 (mouse macrophage cell line), cytoplasmic extracts, immunoprecipitated with anti-IKKα and anti-IKKβ
T1 sequence (Q60680 whole entry): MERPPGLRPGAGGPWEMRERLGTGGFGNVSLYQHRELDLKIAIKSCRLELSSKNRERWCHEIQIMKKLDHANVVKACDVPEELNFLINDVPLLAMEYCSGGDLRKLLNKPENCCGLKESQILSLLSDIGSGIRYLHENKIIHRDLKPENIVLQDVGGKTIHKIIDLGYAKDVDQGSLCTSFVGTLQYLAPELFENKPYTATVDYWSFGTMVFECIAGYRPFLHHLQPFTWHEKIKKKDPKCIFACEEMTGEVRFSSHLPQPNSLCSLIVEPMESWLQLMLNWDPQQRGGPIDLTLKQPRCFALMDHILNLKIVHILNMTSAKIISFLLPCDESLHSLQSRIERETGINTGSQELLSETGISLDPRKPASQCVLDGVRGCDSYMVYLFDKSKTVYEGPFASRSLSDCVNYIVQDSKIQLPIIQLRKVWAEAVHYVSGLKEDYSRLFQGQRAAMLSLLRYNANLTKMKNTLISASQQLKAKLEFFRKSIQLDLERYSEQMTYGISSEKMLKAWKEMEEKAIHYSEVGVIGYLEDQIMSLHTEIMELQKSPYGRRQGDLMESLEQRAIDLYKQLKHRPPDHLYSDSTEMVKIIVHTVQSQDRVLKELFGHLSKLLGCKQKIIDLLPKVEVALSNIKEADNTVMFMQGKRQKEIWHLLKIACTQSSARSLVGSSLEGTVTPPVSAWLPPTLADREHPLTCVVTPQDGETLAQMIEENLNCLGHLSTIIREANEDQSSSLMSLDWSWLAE
T1 sequence (O88351 whole entry): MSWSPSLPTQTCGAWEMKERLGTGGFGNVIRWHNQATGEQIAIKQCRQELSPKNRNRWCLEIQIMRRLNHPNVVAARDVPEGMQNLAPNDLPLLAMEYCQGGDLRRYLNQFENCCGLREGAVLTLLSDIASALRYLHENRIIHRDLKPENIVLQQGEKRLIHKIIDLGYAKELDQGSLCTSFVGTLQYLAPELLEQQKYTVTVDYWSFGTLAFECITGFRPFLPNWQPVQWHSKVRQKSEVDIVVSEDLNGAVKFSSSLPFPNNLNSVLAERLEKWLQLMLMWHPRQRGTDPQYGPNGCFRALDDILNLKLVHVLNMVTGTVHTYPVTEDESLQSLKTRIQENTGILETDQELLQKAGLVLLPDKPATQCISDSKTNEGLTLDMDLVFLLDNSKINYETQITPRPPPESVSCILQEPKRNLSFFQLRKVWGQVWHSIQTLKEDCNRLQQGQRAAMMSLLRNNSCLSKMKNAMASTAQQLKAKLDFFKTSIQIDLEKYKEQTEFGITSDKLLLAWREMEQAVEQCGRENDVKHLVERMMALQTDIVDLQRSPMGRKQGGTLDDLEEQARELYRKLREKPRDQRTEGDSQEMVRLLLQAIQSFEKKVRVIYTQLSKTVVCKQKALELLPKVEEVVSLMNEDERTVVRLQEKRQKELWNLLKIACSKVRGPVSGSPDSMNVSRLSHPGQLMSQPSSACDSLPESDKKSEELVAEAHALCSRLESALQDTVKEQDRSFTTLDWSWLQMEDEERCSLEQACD
T1 sequence (O88522 whole entry partner): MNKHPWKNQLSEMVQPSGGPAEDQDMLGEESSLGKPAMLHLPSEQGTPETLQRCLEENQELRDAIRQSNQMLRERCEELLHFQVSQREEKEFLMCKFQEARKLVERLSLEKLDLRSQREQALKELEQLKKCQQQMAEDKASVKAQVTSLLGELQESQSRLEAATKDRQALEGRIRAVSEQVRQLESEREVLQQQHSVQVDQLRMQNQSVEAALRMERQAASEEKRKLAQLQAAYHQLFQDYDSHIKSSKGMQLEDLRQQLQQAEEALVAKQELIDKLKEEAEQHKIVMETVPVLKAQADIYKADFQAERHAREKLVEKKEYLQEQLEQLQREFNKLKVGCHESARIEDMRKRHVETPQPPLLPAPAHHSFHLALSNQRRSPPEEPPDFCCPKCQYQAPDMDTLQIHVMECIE
Method: as §6

[3] = curcumin 10 μM, RANKL 5 nM, 5 days, FIG. 4

## C=CC(OC(C)=O)c1ccc(O)cc1 (stereo not shown) [1′-Acetoxychavicol]
phospho-IκBα; 1′-Acetoxychavicol 50 μM, ALLN 50 μg/ml, 25 min, FIG. 10B
  RANKL-induced phosphorylation of IκBα: suppressed
[1]; varying concentrations of 1′-Acetoxychavicol, FIG. 15D
  number of TRAP-positive cells, MCF-7 co-incubation: decreased as the concentration of 1′-Acetoxychavicol increased
[1]; varying concentrations of 1′-Acetoxychavicol, FIGS. 15C and 15D
  MCF-7 cells induced osteoclastogenesis: suppressed
NF-κB; 1′-Acetoxychavicol 50 μM and RANKL 10 nM for different times, FIG. 9A
  RANKL-induced NF-κB activation (EMSA), time course: suppressed RANKL-induced NF-κB activation in time-dependent manner
NF-κB; RANKL 10 nM 25 min, FIG. 9B
  concentration of 1′-Acetoxychavicol at which maximal inhibition of RANKL-induced NF-κB activation was observed: 50 µM
NF-κB; variable concentrations of 1′-Acetoxychavicol and RANKL 10 nM for 25 min, FIG. 9B
  RANKL-induced NF-κB activation (EMSA), dose dependence: suppressed RANKL-induced NF-κB activation in a dose-dependent manner
RAW 264.7 cells; 1′-Acetoxychavicol 0.5 μM and RANKL 5 nM, 3 days, FIG. 11A
  RANKL-induced osteoclastogenesis (TRAP assay), incubated for 3 days: able to suppress the RANKL-induced osteoclastogenesis
RAW 264.7 cells; 1′-Acetoxychavicol 0.5 μM and RANKL 5 nM, longer time, FIG. 11A
  RANKL-induced osteoclastogenesis (TRAP assay), incubated for longer than 3 days: osteoclasts were seen
RAW 264.7 cells; RANKL 5 nM, 1′-Acetoxychavicol 0.5 μM added on different days, FIG. 12
  RANKL-induced osteoclastogenesis, time of addition of 1′-Acetoxychavicol: suppressed RANKL-induced osteoclastogenesis only when added together with RANKL
RAW 264.7 cells; different concentrations of 1′-Acetoxychavicol, RANKL 5 nM, FIG. 11B
  number of RANKL-induced osteoclasts versus 1′-Acetoxychavicol concentration: decreased with increasing concentrations of 1′-Acetoxychavicol
IκBα; 1′-Acetoxychavicol 50 μM and RANKL 10 nM for different times, FIG. 10A
  RANKL-induced IκBα level (degradation): no decrease in the RANKL-induced IκBα level
[2]; varying concentrations of 1′-Acetoxychavicol, FIG. 15B
  number of TRAP-positive cells, MDA-MB-468 co-incubation: decreased as the concentration of 1′-Acetoxychavicol increased
[2]; varying concentrations of 1′-Acetoxychavicol, FIGS. 15A and 15B
  MDA-MB-468 cells induced osteoclastogenesis: suppressed

## COc1cc(/C=C/C(=O)CC(=O)/C=C/c2ccc(O)c(OC)c2)ccc1O [curcumin, diferuloylmethane]
IKKα
  expression of IKKα: did not alter the expression
phospho-IκBα; curcumin 50 μM 2 h pretreatment, FIG. 2B
  RANKL-induced phosphorylation of IκBα: eliminated the RANKL-induced phosphorylation
phospho-IκBα; curcumin alone, no RANKL, FIG. 2B
  phosphorylation of IκBα, curcumin alone: did not result in phosphorylation of IκBα
IKKβ
  expression of IKKβ: did not alter the expression
NF-κB; curcumin 50 μM for 2 hours, then RANKL 10 nM, FIG. 1A
  RANKL-induced NF-κB activation (EMSA): completely abrogated the RANKL-induced NF-κB activation
NF-κB; curcumin 2 h, then RANKL 10 nM, FIG. 1B
  concentration of curcumin at which complete inhibition of RANKL-induced NF-κB activation was observed: 50 µM
NF-κB; indicated concentrations of curcumin 2 h, then RANKL 10 nM, FIG. 1B
  dose dependence of inhibition of RANKL-induced NF-κB: increased as the dose of curcumin was increased
RAW 264.7 cells; RANKL 5 nM, different concentrations of curcumin, 5 days, FIG. 3B
  number of RANKL-induced osteoclasts versus curcumin concentration: number of osteoclasts decreased with increasing concentration of curcumin
RAW 264.7 cells; curcumin 10 μM added at the same time as RANKL 5 nM, 5 days
  RANKL-induced osteoclastogenesis, curcumin added together with RANKL: suppressed osteoclastogenesis maximally
RAW 264.7 cells; [3]
  RANKL-induced osteoclastogenesis, curcumin added 24 hours after RANKL: inhibited osteoclastogenesis
  RANKL-induced osteoclastogenesis, curcumin added 2 days after RANKL: inhibitory effect decreased significantly
IκBα; curcumin 50 μM 2 h pretreatment, RANKL 10 nM, FIG. 2A
  RANKL-induced IκBα level (degradation): no decrease in the RANKL-induced IκBα level
IκB kinase (IKK); curcumin 50 μM 2 h pretreatment, RANKL 10 nM, FIG. 2C upper panel
  RANKL-induced IKK activity (phosphorylation of GST-IκBα substrate): could not phosphorylate guggulsterone T-IκBα upon RANKL treatment

## C/C=C1\C(=O)C[C@H]2[C@@H]3CCC4=CC(=O)CC[C@]4(C)[C@H]3CC[C@]12C [guggulsterone]
[1]; varying concentrations of guggulsterone, FIG. 16D
  number of TRAP-positive cells, MCF-7 co-incubation: decreased as the concentration of guggulsterone increased
[1]; varying concentrations of guggulsterone, FIGS. 16C and 16D
  MCF-7 cells induced osteoclastogenesis: suppressed
NF-κB; guggulsterone 4 h, then RANKL 10 nM 25 min, FIG. 6A
  concentration of guggulsterone at which maximal inhibition of RANKL-induced NF-κB activation was observed: 50 µM
NF-κB; guggulsterone in the absence of RANKL, FIG. 6A
  NF-κB activation, guggulsterone alone: no NF-κB activation
NF-κB; variable concentrations of guggulsterone 4 h, then RANKL 10 nM 25 min, FIG. 6A
  dose dependence of suppression of RANKL-induced NF-κB activation (EMSA): suppression of this activation increased as the concentration of guggulsterone increased
RAW 264.7 cells; RANKL 5 nM, guggulsterone 5 μM added on different days, FIG. 8
  RANKL-induced osteoclastogenesis, time of addition of guggulsterone: suppressed RANKL-induced osteoclastogenesis only when added together with RANKL
RAW 264.7 cells; guggulsterone 5 μM and RANKL 5 nM for different days, FIG. 7A
  RANKL-induced osteoclastogenesis (TRAP assay): suppressed RANKL-induced osteoclastogenesis
RAW 264.7 cells; guggulsterone, RANKL 5 nM, FIG. 7B
  number of RANKL-induced TRAP positive cells: decreased with increasing concentration of guggulsterone
IκB kinase (IKK); guggulsterone 50 μM 4 h pretreatment, RANKL 10 nM different times, FIG. 6B
  RANKL-induced IKK activity (immune complex kinase assay): absence of IKK activity upon RANKL treatment
[2]; varying concentrations of guggulsterone, FIG. 16B
  number of TRAP-positive cells, MDA-MB-468 co-incubation: decreased as the concentration of guggulsterone increased
[2]; varying concentrations of guggulsterone, FIGS. 16A and 16B
  MDA-MB-468 cells induced osteoclastogenesis: suppressed
